Laboratory results as given in ChEMBL document CHEMBL3885881, “DrugMatrix”.

Species: Rattus norvegicus
Assay: DrugMatrix - Regimen: Daily Repeat
Assay type: toxicity, organism-based, Sprague-Dawley
Parameters: regimen Daily Repeat, gender Male, age 6-8 weeks
Conditions: in vivo, po, route oral GAVAGE, vehicle .5 % CMC; for ABSOLUTE BASOPHIL / ABSOLUTE EOSINOPHIL / ABSOLUTE LYMPHOCYTE / ABSOLUTE MONOCYTE / ABSOLUTE SEGMENTED NEUTROPHIL / BASOPHIL / EOSINOPHIL / ERYTHROCYTE COUNT / HEMATOCRIT / HEMOGLOBIN / LEUKOCYTE COUNT / LYMPHOCYTE / MEAN CORPUSCULAR HEMOGLOBIN / MEAN CORPUSCULAR HEMOGLOBIN CONCENTRATION / MEAN CORPUSCULAR VOLUME / MONOCYTE / NEUTROPHIL / NUCLEATED RED BLOOD CELLS / PLATELET COUNT: tissue Blood; for ALANINE AMINOTRANSFERASE / ALBUMIN / ALKALINE PHOSPHATASE / ASPARTATE AMINOTRANSFERASE / BLOOD UREA NITROGEN / CARBON DIOXIDE / CHLORIDE / CHOLESTEROL / CREATINE PHOSPHOKINASE / CREATININE / GLUCOSE / LACTATE DEHYDROGENASE / LIPASE / PHOSPHORUS / POTASSIUM / SODIUM / TOTAL BILIRUBIN / TOTAL PROTEIN / URIC ACID: tissue Plasma
[1] = 1 mg/kg, 120 h, dose level Low, time 5 day
[2] = 1300 mg/kg, 72 h, dose level High, time 3 day
[3] = 1300 mg/kg, 120 h, dose level High, time 5 day

CCOc1nc2cccc(C(=O)O)c2n1Cc1ccc(-c2ccccc2-c2nnn[nH]2)cc1
ABSOLUTE BASOPHIL [1]: 0 CELLS/uL
ABSOLUTE EOSINOPHIL [1]: 0 CELLS/uL
ABSOLUTE LYMPHOCYTE [1]: 10713.33 CELLS/uL
ABSOLUTE MONOCYTE [1]: 81.33 CELLS/uL
ABSOLUTE SEGMENTED NEUTROPHIL [1]: 1172 CELLS/uL
BASOPHIL [1]: 0%
EOSINOPHIL [1]: 0%
ERYTHROCYTE COUNT [1]: 5.35 x10E6/uL
HEMATOCRIT [1]: 34.57%
HEMOGLOBIN [1]: 13.63 G/DL
LEUKOCYTE COUNT [1]: 11.97 x10E3/uL
LYMPHOCYTE [1]: 89.67%
MEAN CORPUSCULAR HEMOGLOBIN [1]: 25.5 pg
MEAN CORPUSCULAR HEMOGLOBIN CONCENTRATION [1]: 39.43 G/DL
MEAN CORPUSCULAR VOLUME [1]: 64.67 fL
MONOCYTE [1]: 0.67%
NEUTROPHIL [1]: 9.67%
NUCLEATED RED BLOOD CELLS [1]: 0 /100WBC
PLATELET COUNT [1]: 1267.33 x10E3/uL
ALANINE AMINOTRANSFERASE [1]: 54 u/L
ALBUMIN [1]: 4.1 G/DL
ALKALINE PHOSPHATASE [1]: 389.33 u/L
ASPARTATE AMINOTRANSFERASE [1]: 76.67 u/L
BLOOD UREA NITROGEN [1]: 18.33 mg/dL
CARBON DIOXIDE [1]: 27 mmol/L
CHLORIDE [1]: 104.33 MEQ/L
CHOLESTEROL [1]: 70.33 mg/dL
CREATINE PHOSPHOKINASE [1]: 187.67 u/L
CREATININE [1]: 0.19 mg/dL
GLUCOSE [1]: 161.33 mg/dL
LACTATE DEHYDROGENASE [1]: 120.67 u/L
LIPASE [1]: 10.67 u/L
PHOSPHORUS [1]: 12.2 mg/dL
POTASSIUM [1]: 5.83 MEQ/L
SODIUM [1]: 144.5 MEQ/L
TOTAL BILIRUBIN [1]: 0.2 mg/dL
TOTAL PROTEIN [1]: 5.97 G/DL
URIC ACID [1]: 1.6 mg/dL
ABSOLUTE BASOPHIL [2]: 0 CELLS/uL
ABSOLUTE EOSINOPHIL [2]: 27.67 CELLS/uL
ABSOLUTE LYMPHOCYTE [2]: 7595.67 CELLS/uL
ABSOLUTE MONOCYTE [2]: 24.33 CELLS/uL
ABSOLUTE SEGMENTED NEUTROPHIL [2]: 519 CELLS/uL
BASOPHIL [2]: 0%
EOSINOPHIL [2]: 0.33%
ERYTHROCYTE COUNT [2]: 5.08 x10E6/uL
HEMATOCRIT [2]: 32.2%
HEMOGLOBIN [2]: 13.13 G/DL
LEUKOCYTE COUNT [2]: 8.17 x10E3/uL
LYMPHOCYTE [2]: 93%
MEAN CORPUSCULAR HEMOGLOBIN [2]: 25.87 pg
MEAN CORPUSCULAR HEMOGLOBIN CONCENTRATION [2]: 40.8 G/DL
MEAN CORPUSCULAR VOLUME [2]: 63.43 fL
MONOCYTE [2]: 0.33%
NEUTROPHIL [2]: 6.33%
NUCLEATED RED BLOOD CELLS [2]: 0 /100WBC
PLATELET COUNT [2]: 1033.67 x10E3/uL
ALANINE AMINOTRANSFERASE [2]: 54 u/L
ALBUMIN [2]: 4.33 G/DL
ALKALINE PHOSPHATASE [2]: 351.67 u/L
ASPARTATE AMINOTRANSFERASE [2]: 93 u/L
BLOOD UREA NITROGEN [2]: 27.33 mg/dL
CARBON DIOXIDE [2]: 32 mmol/L
CHLORIDE [2]: 102 MEQ/L
CHOLESTEROL [2]: 73 mg/dL
CREATINE PHOSPHOKINASE [2]: 813.67 u/L
CREATININE [2]: 0.48 mg/dL
GLUCOSE [2]: 143 mg/dL
LACTATE DEHYDROGENASE [2]: 189.33 u/L
LIPASE [2]: 10.33 u/L
PHOSPHORUS [2]: 12.17 mg/dL
POTASSIUM [2]: 7.02 MEQ/L
SODIUM [2]: 143.6 MEQ/L
TOTAL BILIRUBIN [2]: 0.23 mg/dL
TOTAL PROTEIN [2]: 5.93 G/DL
URIC ACID [2]: 0.93 mg/dL
ABSOLUTE BASOPHIL [3]: 0 CELLS/uL
ABSOLUTE EOSINOPHIL [3]: 140.67 CELLS/uL
ABSOLUTE LYMPHOCYTE [3]: 14776.67 CELLS/uL
ABSOLUTE MONOCYTE [3]: 166.33 CELLS/uL
ABSOLUTE SEGMENTED NEUTROPHIL [3]: 1516.33 CELLS/uL
BASOPHIL [3]: 0%
EOSINOPHIL [3]: 0.67%
ERYTHROCYTE COUNT [3]: 5.54 x10E6/uL
HEMATOCRIT [3]: 34.57%
HEMOGLOBIN [3]: 13.97 G/DL
LEUKOCYTE COUNT [3]: 16.6 x10E3/uL
LYMPHOCYTE [3]: 89.33%
MEAN CORPUSCULAR HEMOGLOBIN [3]: 25.23 pg
MEAN CORPUSCULAR HEMOGLOBIN CONCENTRATION [3]: 40.43 G/DL
MEAN CORPUSCULAR VOLUME [3]: 62.43 fL
MONOCYTE [3]: 1%
NEUTROPHIL [3]: 9%
NUCLEATED RED BLOOD CELLS [3]: 0 /100WBC
PLATELET COUNT [3]: 1315 x10E3/uL
ALANINE AMINOTRANSFERASE [3]: 42.33 u/L
ALBUMIN [3]: 4.33 G/DL
ALKALINE PHOSPHATASE [3]: 320.67 u/L
ASPARTATE AMINOTRANSFERASE [3]: 108 u/L
BLOOD UREA NITROGEN [3]: 32.33 mg/dL
CARBON DIOXIDE [3]: 24.67 mmol/L
CHLORIDE [3]: 105 MEQ/L
CHOLESTEROL [3]: 61.67 mg/dL
CREATINE PHOSPHOKINASE [3]: 994.33 u/L
CREATININE [3]: 0.19 mg/dL
GLUCOSE [3]: 134 mg/dL
LACTATE DEHYDROGENASE [3]: 1053.67 u/L
LIPASE [3]: 10 u/L
PHOSPHORUS [3]: 11.2 mg/dL
POTASSIUM [3]: 6.2 MEQ/L
SODIUM [3]: 143.9 MEQ/L
TOTAL BILIRUBIN [3]: 0.2 mg/dL
TOTAL PROTEIN [3]: 6.2 G/DL
URIC ACID [3]: 1.13 mg/dL
